Values after ≈ are worked out from the molar mass of the structure shown.
Test system: C. albicans
Test: Minimum Inhibitory Concentration (MIC) (C. albicans), CLSI M27-A2
Format: cell-based
Details: Candida albicans, 48 h, C. albicans; approximately 48 h at 35±1° C.; MIC = about 50% growth reduction, visual; read-out: Candida MIC Rating
Experimental: A. Minimum Inhibitory Concentration (MIC) (C. albicans) Compounds of the present disclosure were assessed for their ability to inhibit the growth of common strains of fungus, C. albicans using a standardized procedure (CLSI M27-A2). Stock solutions of the test compounds and standards were prepared in DMSO at 1,600 μg/mL (C. albicans). Eleven, serial, one-half dilutions of compounds were prepared in 96-well plates in RPMI+MOPS. The assay concentration ranges were 8-0.001 μg/mL (C. albicans). Cell suspensions of C. albicans were prepared and added to each well at concentrations of approximately 3.7×10^3 colony-forming-units per milliliter (cfu/mL). All testing was in duplicate. The inoculated plates were incubated for approximately 48 h at 35±1° C. At the completion of incubation the wells of each plate were evaluated visually for the presence of fungal growth. […] For QC purposes C. krusei isolate ATCC 6258 (4.0×10^3 cfu/mL) was included in the VOR assay.

Row | MIC [mg/L] | Compound
1 | 1.5 to 4 (≈ 3.38 to 9.02 µM) | CC(F)(c1ccc(-c2ccc(F)cc2)cn1)[C@](O)(Cn1cnnn1)c1ccc(F)cc1F (stereo in doubt) [Example 50, 2-(2,4-Difluorophenyl)-3-fluoro-3-(5-(4-fluorophenyl)pyridin-2-yl)-1-(1H-tetrazol-1-yl)butan-2-ol]

Test system: Septoria tritici (ATCC 26517)
Test: Minimum Inhibitory Concentration (MIC) (Septoria tritici), CLSI-based microdilution
Format: cell-based
Details: S. tritici ATCC 26517; seven days at 22° C. in the dark; MIC = 50% reduction in growth, visual
Experimental: B. Minimum Inhibitory Concentration (MIC) (Septoria tritici)
Compounds of the present disclosure were assessed for their ability to inhibit the growth of a common strain of the fungal plant pathogen Septoria tritici (ATCC 26517) using a procedure based on a Clinical and Laboratory Standards Institute (CLSI) microdilution assay protocol for filamentous fungi.
Stock solutions of the test compounds and standards were prepared in DMSO at 6400 μg/mL. Each stock solution was used to prepare a 2-fold dilution series ranging from 16 to 0.016 μg/mL (total of 11 compound concentrations) in RPMI-1640 (Roswell Park Memorial Institute) medium containing 3-(N-morpholino)propanesulfonic acid (MOPS) buffer and 2% DMSO. A 100 μL aliquot of the dilutions was added to columns 1 (16 μg/mL compound) through 11 (0.016 μg/mL compound) of a 96-well microtiter plate. This format was replicated in a second row of the microtiter plate. Thus, each microtiter plate could include 11 concentrations of four test or control compounds replicated twice. A 100 μL aliquot of RPMI-1640/MOPS/2% DMSO medium was added to column 12 (no compound control) of the microtiter plate.
A fresh culture of S. tritici was used to prepare a solution of approximately 5×10^4 colony-forming units per milliliter (cfu/mL) in RPMI/MOPS medium without DMSO. A 100 μL aliquot of this solution was added to all 96 wells in the microtiter plate. […] The assay plates were incubated at 22° C. for seven days in the dark without shaking.

Row | Septoria MIC Rating | Compound
2 | B (>0.5-1.5) | CC(F)(c1ccc(-c2ccc(OC(F)(F)F)cc2)cn1)C(O)(Cn1cnnn1)c1ccc(F)cc1F (centres unmarked) [Example 47, 2-(2,4-Difluorophenyl)-3-fluoro-1-(1H-tetrazol-1-yl)-3-(5-(4-(trifluoromethoxy)phenyl)-pyridin-2-yl)butan-2-ol]

Same assay, conditions: Zymoseptoria tritici, ATCC26517, 168 h, S. tritici ATCC 26517; seven days at 22° C. in the dark; MIC = 50% reduction in growth, visual; read-out: Septoria MIC Rating

Row | MIC [mg/L] | Compound
3 | 0.5 to 1.5 (≈ 1.06 to 3.18 µM) | CC(C)c1cccc(-c2ccc(C(F)(F)C(O)(Cn3cnnn3)c3ccc(F)cc3F)nc2)c1 (centres unmarked) [Example 24, 2-(2,4-Difluorophenyl)-1,1-difluoro-1-(5-(3-isopropylphenyl)pyridin-2-yl)-3-(1H-tetrazol-1-yl)propan-2-ol]
4 | < 0.5 | OC(Cn1cnnn1)(c1ccc(F)cc1F)C(F)(F)c1ccc(-c2ccc(F)c(F)c2)cn1 (centres unmarked) [Example 25, 2-(2,4-Difluorophenyl)-1-(5-(3,4-difluorophenyl)pyridin-2-yl)-1,1-difluoro-3-(1H-tetrazol-1-yl)propan-2-ol]
5 | 0.5 to 1.5 (≈ 1.01 to 3.03 µM) | OC(Cn1cnnn1)(c1ccc(F)cc1F)C(F)(F)c1ccc(-c2cccc(OC(F)F)c2)cn1 (centres unmarked) [Example 26, 1-(5-(3-(Difluoromethoxy)phenyl)pyridin-2-yl)-2-(2,4-difluorophenyl)-1,1-difluoro-3-(1H-tetrazol-1-yl)propan-2-ol]
6 | < 0.5 | OC(Cn1cnnn1)(c1ccc(F)cc1F)C(F)(F)c1ccc(-c2ccc(SC(F)(F)F)cc2)cn1 (centres unmarked) [Example 27, 2-(2,4-Difluorophenyl)-1,1-difluoro-3-(1H-tetrazol-1-yl)-1-(5-(4-((trifluoromethyl)thio)phenyl)pyridin-2-yl)propan-2-ol]
7 | 1.5 to 4 (≈ 3.11 to 8.3 µM) | OC(Cn1cnnn1)(c1ccc(F)cc1F)C(F)(F)c1ccc(-c2ccc(Cl)c(F)c2)cn1 (centres unmarked) [Example 29, 1-(5-(4-Chloro-3-fluorophenyl)pyridin-2-yl)-2-(2,4-difluorophenyl)-1,1-difluoro-3-(1H-tetrazol-1-yl)propan-2-ol]
8 | < 0.5 | Oc1cccc(-c2ccc(C(F)(F)C(O)(Cn3cnnn3)c3ccc(F)cc3F)nc2)c1 (centres unmarked) [Example 30, 3-(6-(2-(2,4-Difluorophenyl)-1,1-difluoro-2-hydroxy-3-(1H-tetrazol-1-yl)propyl)pyridin-3-yl)phenol]
9 | 0.5 to 1.5 (≈ 1.01 to 3.02 µM) | OC(Cn1cnnn1)(c1ccc(F)cc1F)C(F)(F)c1ccc(-c2cccc(C(F)(F)F)c2)cn1 (centres unmarked) [Example 31, 2-(2,4-Difluorophenyl)-1,1-difluoro-3-(1H-tetrazol-1-yl)-1-(5-(3-(trifluoromethyl)phenyl)pyridin-2-yl)propan-2-ol]
10 | 0.5 to 1.5 (≈ 1.05 to 3.16 µM) | O=[N+]([O-])c1ccc(-c2ccc(C(F)(F)C(O)(Cn3cnnn3)c3ccc(F)cc3F)nc2)cc1 (centres unmarked) [Example 32, 2-(2,4-Difluorophenyl)-1,1-difluoro-1-(5-(4-nitrophenyl)pyridin-2-yl)-3-(1H-tetrazol-1-yl)propan-2-ol]
11 | 0.5 to 1.5 (≈ 0.952 to 2.86 µM) | O=C(c1ccc(-c2ccc(C(F)(F)C(O)(Cn3cnnn3)c3ccc(F)cc3F)nc2)cc1)C(F)(F)F (centres unmarked) [Example 33, 1-(4-(6-(2-(2,4-Difluorophenyl)-1,1-difluoro-2-hydroxy-3-(1H-tetrazol-1-yl)propyl)pyridin-3-yl)phenyl)-2,2,2-trifluoroethanone]
12 | < 0.5 | OC(Cn1cnnn1)(c1ccc(Cl)cc1F)C(F)(F)c1ccc(-c2ccc(OC(F)(F)F)cc2)cn1 (centres unmarked) [Example 34, 2-(4-Chloro-2-fluorophenyl)-1,1-difluoro-3-(1H-tetrazol-1-yl)-1-(5-(4-(trifluoromethoxy)phenyl)pyridin-2-yl)propan-2-ol]
13 | < 0.5 | OC(Cn1cnnn1)(c1ccc(F)cc1F)C(F)(F)c1ccc(-c2ccccc2)cn1 (centres unmarked) [Example 35, 2-(2,4-Difluorophenyl)-1,1-difluoro-1-(5-phenylpyridin-2-yl)-3-(1H-tetrazol-1-yl)propan-2-ol]
14 | < 0.5 | OC(Cn1cnnn1)(c1ccc(F)cc1F)C(F)(F)c1ccc(-c2ccc(N3CCOCC3)cc2)cn1 (centres unmarked) [Example 36, 2-(2,4-Difluorophenyl)-1,1-difluoro-1-(5-(4-morpholinophenyl)pyridin-2-yl)-3-(1H-tetrazol-1-yl)propan-2-ol]
15 | < 0.5 | O=C(Nc1ccc(-c2ccc(C(F)(F)C(O)(Cn3cnnn3)c3ccc(F)cc3F)nc2)cc1)C(F)(F)F (centres unmarked) [Example 37, N-(4-(6-(2-(2,4-Difluorophenyl)-1,1-difluoro-2-hydroxy-3-(1H-tetrazol-1-yl)propyl)pyridin-3-yl)phenyl)-2,2,2-trifluoroacetamide]
16 | < 0.5 | OC(Cn1cnnn1)(c1ccc(F)cc1F)C(F)(F)c1ccc(-c2ccc(OC(F)F)cc2)cn1 (centres unmarked) [Example 38, 1-(5-(4-(Difluoromethoxy)phenyl)pyridin-2-yl)-2-(2,4-difluorophenyl)-1,1-difluoro-3-(1H-tetrazol-1-yl)propan-2-ol]
17 | < 0.5 | OC(Cn1cnnn1)(c1ccc(F)cc1F)C(F)(F)c1ccc(-c2ccc(SC(F)F)cc2)cn1 (centres unmarked) [Example 40, 1-(5-(4-((Difluoromethyl)thio)phenyl)pyridin-2-yl)-2-(2,4-difluorophenyl)-1,1-difluoro-3-(1H-tetrazol-1-yl)propan-2-ol]
18 | < 0.5 | OC(Cn1cnnn1)(c1ccc(F)cc1F)C(F)(F)c1ccc(-c2ccc(CC(F)(F)F)cc2)cn1 (centres unmarked) [Example 41, 2-(2,4-Difluorophenyl)-1,1-difluoro-3-(1H-tetrazol-1-yl)-1-(5-(4-(2,2,2-trifluoroethyl)phenyl)pyridin-2-yl)propan-2-ol]
19 | > 4 | CNC(=O)c1ccc(-c2ccc(C(F)(F)C(O)(Cn3cnnn3)c3ccc(F)cc3F)nc2)cc1 (centres unmarked) [Example 42, 4-(6-(2-(2,4-Difluorophenyl)-1,1-difluoro-2-hydroxy-3-(1H-tetrazol-1-yl)propyl)pyridin-3-yl)-N-methylbenzamide]
20 | 0.5 to 1.5 (≈ 0.923 to 2.77 µM) | OC(Cn1cnnn1)(c1ccc(F)cc1F)C(F)(F)c1ccc(-c2ccc(OCCC(F)(F)F)cc2)cn1 (centres unmarked) [Example 44, 2-(2,4-Difluorophenyl)-1,1-difluoro-3-(1H-tetrazol-1-yl)-1-(5-(4-(3,3,3-trifluoropropoxy)phenyl)pyridin-2-yl)propan-2-ol]
21 | < 0.5 | OC(Cn1cnnn1)(c1ccc(F)cc1F)C(F)(F)c1ccc(-c2ccc(SCC(F)(F)F)cc2)cn1 (centres unmarked) [Example 45, 2-(2,4-Difluorophenyl)-1,1-difluoro-3-(1H-tetrazol-1-yl)-1-(5-(4-((2,2,2-trifluoroethyl)thio)phenyl)pyridin-2-yl)propan-2-ol]
22 | < 0.5 | CC(F)(c1ccc(-c2ccc(OC(F)(F)F)cc2)cn1)C(O)(Cn1cnnn1)c1ccc(F)cc1F (centres unmarked) [Example 46, 2-(2,4-Difluorophenyl)-3-fluoro-1-(1H-tetrazol-1-yl)-3-(5-(4-(trifluoromethoxy)phenyl)-pyridin-2-yl)butan-2-ol]
23 | 1.5 to 4 (≈ 3.04 to 8.11 µM) | CC(F)(c1ccc(-c2ccc(C(F)(F)F)cc2)cn1)C(O)(Cn1cnnn1)c1ccc(F)cc1F (centres unmarked) [Example 53, 2-(2,4-Difluorophenyl)-3-fluoro-1-(1H-tetrazol-1-yl)-3-(5-(4-(trifluoromethyl)phenyl)pyridin-2-yl)butan-2-ol]
24 | 1.5 to 4 (≈ 3.26 to 8.7 µM) | CC(F)(c1ccc(-c2ccc(Cl)cc2)cn1)C(O)(Cn1cnnn1)c1ccc(F)cc1F (centres unmarked) [Example 55, 3-(5-(4-Chlorophenyl)pyridin-2-yl)-2-(2,4-difluorophenyl)-3-fluoro-1-(1H-tetrazol-1-yl)butan-2-ol]
25 | 1.5 to 4 (≈ 2.87 to 7.64 µM) | CC(F)(c1ccc(-c2ccc(OCC(F)(F)F)cc2)cn1)C(O)(Cn1cnnn1)c1ccc(F)cc1F (centres unmarked) [Example 57, 2-(2,4-Difluorophenyl)-3-fluoro-1-(1H-tetrazol-1-yl)-3-(5-(4-(2,2,2-trifluoroethoxy)phenyl)pyridin-2-yl)butan-2-ol]

Row | Compound | MIC [mg/L]
26 | CC(C)(C)Oc1ccc(-c2ccc(C(F)(F)C(O)(Cn3cnnn3)c3ccc(F)cc3F)nc2)cc1 (centres unmarked) [Example 28, 1-(5-(4-(tert-Butoxy)phenyl)pyridin-2-yl)-2-(2,4-difluorophenyl)-1,1-difluoro-3-(1H-tetrazol-1-yl)propan-2-ol] | < 0.5

— US9414596B2, “Metalloenzyme inhibitor compounds” (Viamet Pharmaceuticals, Inc., priority 2012, dated 2016)
